Experimental data taken from patent US20070191413A1, “Novel heterocycle-substituted hydroxy-6-phenylphenanthridines and their use as pde4 inhibitors” (Atlanta Pharma AG, priority 2004, published 2007).

What follows are compounds tested against T1, PDE4B2 (Homo sapiens, UniProt Q07343) (assay: Inhibition of PDE4B2 activity in a modified SPA (scintillation proximity assay) test). Settings: recombinant PDE4B2 (SF21 cell supernatant), [3H]cAMP SPA, 0.5 μM cAMP, 37° C.; value given as a range for the group of listed compounds; read-out: Inhibition of the PDE4 activity, −log IC50 (converted).
T1 construct: made in house; host or cells: SF21 insect cells (baculovirus; virus prepared in SF9 cells)
T1 sequence (Q07343 1-564 isoform Q07343-2): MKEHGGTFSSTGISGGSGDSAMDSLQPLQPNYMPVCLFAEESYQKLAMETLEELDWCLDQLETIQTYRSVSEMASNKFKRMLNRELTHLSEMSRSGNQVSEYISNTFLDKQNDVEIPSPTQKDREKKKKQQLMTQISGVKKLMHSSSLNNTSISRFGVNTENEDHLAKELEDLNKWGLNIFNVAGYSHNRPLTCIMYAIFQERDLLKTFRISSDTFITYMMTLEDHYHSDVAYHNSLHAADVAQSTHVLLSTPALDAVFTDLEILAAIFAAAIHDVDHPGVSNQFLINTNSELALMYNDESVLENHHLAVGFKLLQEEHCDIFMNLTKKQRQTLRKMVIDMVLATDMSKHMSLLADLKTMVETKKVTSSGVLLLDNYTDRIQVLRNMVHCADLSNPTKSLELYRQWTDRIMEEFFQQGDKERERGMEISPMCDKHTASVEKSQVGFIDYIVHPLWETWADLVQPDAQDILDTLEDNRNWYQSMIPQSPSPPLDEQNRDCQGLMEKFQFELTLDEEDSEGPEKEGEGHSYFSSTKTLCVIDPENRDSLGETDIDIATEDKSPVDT
Type: biochemical
Description: The PDE4B2 (GB no. M97515) was a gift of Prof. M. Conti (Stanford University, USA). It was amplified from the original plasmid (pCMV5) via PCR with primers Rb9 (5′-[…]-3′) and Rb10 (5′-[…]-3′) and cloned into the pCR-Bac vector (Invitrogen, Groningen, NL).
The recombinant baculovirus was prepared by means of homologous recombination in SF9 insect cells. The expression plasmid was cotransfected with Bac-N-Blue (Invitrogen, Groningen, NL) or Baculo-Gold DNA (Pharmingen, Hamburg) using a standard protocol (Pharmingen, Hamburg). Wt virus-free recombinant virus supernatant was selected using plaque assay methods. After that, high-titre virus supernatant was prepared by amplifying 3 times. PDE was expressed in SF21 cells by infecting 2×10^6 cells/ml with an MOI (multiplicity of infection) between 1 and 10 in serum-free SF900 medium (Life Technologies, Paisley, UK). The cells were cultured at 28° C. for 48-72 hours, after which they were pelleted for 5-10 min at 1000 g and 4° C.
The SF21 insect cells were resuspended, at a concentration of approx. 10^7 cells/ml, in ice-cold (4° C.) homogenization buffer (20 mM Tris, pH 8.2, containing the following additions: 140 mM NaCl, 3.8 mM KCl, 1 mM EGTA, 1 mM MgCl2, 10 mM P-mercaptoethanol, 2 mM benzamidine, 0.4 mM Pefablock, 10 μM leupeptin, 10 μM pepstatin A, 5 μM trypsin inhibitor) and disrupted by ultrasonication. The homogenate was then centrifuged for 10 min at 1000×g and the supernatant was stored at −80° C. until subsequent use (see below). The protein content was determined by the Bradford method (BioRad, Munich) using BSA as the standard.
PDE4B2 activity is inhibited by the said compounds in a modified SPA (scintillation proximity assay) test, supplied by Amersham Biosciences (see procedural instructions “phosphodiesterase [3H]cAMP SPA enzyme assay, code TRKQ 7090”), carried out in 96-well microtitre plates (MTP's). The test volume is 100 μl and contains 20 mM Tris buffer (pH 7.4), 0.1 mg of BSA (bovine serum albumin)/ml, 5 mM Mg^2+, 0.5 μM cAMP (including about 50,000 cpm of [3H]cAMP), 1 μl of the respective substance dilution in DMSO and sufficient recombinant PDE (1000×g supernatant, see above) to ensure that 10-20% of the CAMP is converted under the said experimental conditions. […] After a preincubation of 5 min at 37° C., the reaction is started by adding the substrate (cAMP) and the assay is incubated for a further 15 min; after that, it is stopped by adding SPA beads (50 μl). In accordance with the manufacturer's instructions, the SPA beads had previously been resuspended in water, but were then diluted 1:3 (v/v) in water; the diluted solution also contains 3 mM IBMX to ensure a complete PDE activity stop. After the beads have been sedimented (>30 min), the MTP's are analyzed in commercially available luminescence detection devices. The corresponding IC50 values of the compounds for the inhibition of PDE activity are determined from the concentration-effect curves by means of non-linear regression.

IC50, 0.724 to 7.41 nM:
CCn1nnc(-c2ccc(C3=N[C@@H]4CC[C@@H](O)C[C@@H]4c4cc(OC)c(OC(F)F)cc43)cc2)n1 (racemic) [Compound 7, (2RS,4aRS,10bRS)-8-(1,1-Difluoro-methoxy)-6-[4-(2ethyl-2H-tetrazol-5-yl)-phenyl]-9-methoxy-1,2,3,4,4a,10b-hexahydro-phenanthridin-2-ol]
CCOc1cc2c(cc1OC)C(c1ccc(-n3ccnc3)cc1)=N[C@@H]1CC[C@@H](O)C[C@H]21 (racemic) [Compound 1, (2RS,4aRS,10bRS)-9-Ethoxy-6-(4-imidazol-1 yl-phenyl)-8-methoxy-1,2,3,4,4a,10b-hexahydro-phenanthridin-2-ol]
CCCn1nnc(-c2ccc(C3=N[C@@H]4CC[C@@H](O)C[C@@H]4c4cc(OC)c(OC)cc43)cc2)n1 (racemic) [Compound 6, (2RS,4aRS,10bRS)-8,9-Dimethoxy-6-[4-(2-propyl-2H-tetrazol-5-yl)-phenyl]-1,2,3,4,4a,10b-hexahydro-phenanthridin-2-ol]
CCn1nnc(-c2ccc(C3=N[C@@H]4CC[C@@H](O)C[C@@H]4c4cc(OC(F)F)c(OC)cc43)cc2)n1 (racemic) [Compound 8, (2RS,4aRS,10bRS)-9-(1,1-Difluoro-methoxy)-6-[4-(2-ethyl-2H-tetrazol-5-yl)-phenyl]-8-methoxy-1,2,3,4,4a,10b-hexahydro-phenanthridin-2ol]
CCOc1cc2c(cc1OC)C(c1ccc(-c3nc(OC)cc(OC)n3)cc1)=N[C@@H]1CC[C@@H](O)C[C@H]21 (racemic) [Compound 3, (2RS,4aRS,10bRS)-6-[4-(4,6-Dimethoxy-pyrimidin-2-yl)-phenyl]-9-ethoxy-8-methoxy-1,2,3,4,4a,10b-hexahydro-phenanthridin-2-ol]
CCOc1cc2c(cc1OC)C(c1ccc(N3CCOCC3)cc1)=N[C@@H]1CC[C@@H](O)C[C@H]21 (racemic) [Compound 5, (2RS,4aRS,10bRS)-9-Ethoxy-8-methoxy-6-(4-morpholin-4-yl-phenyl)-1,2,3,4,4a,10b-hexahydro-phenanthridin-2-ol]
CCOc1cc2c(cc1OC)C(c1ccc(-c3csnn3)cc1)=N[C@@H]1CC[C@@H](O)C[C@H]21 (racemic) [Compound 4, (2RS,4aRS,10bRS)-9-Ethoxy-8-methoxy-6-(4-[1,2,3]thiadiazol-4-yl-phenyl)-1,2,3,4,4a,10b-hexahydro-phenanthridin-2ol]
CCOc1cc2c(cc1OC)C(c1ccc(N3CCN(C)CC3)cc1)=N[C@@H]1CC[C@@H](O)C[C@H]21 (racemic) [Compound 2, (2RS,4aRS,10bRS)-9-Ethoxy-8-methoxy-6-[4-(4-methyl-piperazin-1-yl)-phenyl]-1,2,3,4,4a,10b-hexahydro-phenanthridin-2-ol]
